# Source: patent publication EP1130016A1, “THIOCARBAMIC ACID DERIVATIVES” (HOKURIKU SEIYAKU CO., LTD., priority 1998, dated 2000)
# Read-outs that look alike come from different tables or passages of the source.
# Tests used:
# E.faecalis HPC 1321 = experiment: Antibacterial activity (MIC), clinical isolates; format: cell-based; details: Enterococcus faecalis, HPC1321
# Experimental: (§1) Antibacterial activities (minimum inhibitory concentration: MIC) were determined according to the standard method of the Japan Society of Chemotherapy [Chemotherapy, Vol. 29, p.76 (1981)] by using type strains and strains isolated from patients with infectious disease (including clinical isolates and atypical acid-fast bacteria), and applying 10^6/ml of colony forming bacteria. Linezolid was used as the reference compound [a compound described in Journal of Medicinal Chemistry, Vol. 39, p.673 (1996), hereinafter referred to as "reference compound"].
# E.faecium HPC 1322 = experiment: Antibacterial activity (MIC), clinical isolates; format: cell-based; details: Enterococcus faecium, HPC1322
# Experimental: as §1
# S.epidermidis HPC 1728 = experiment: Antibacterial activity (MIC), clinical isolates; format: cell-based; details: Staphylococcus epidermidis, HPC1728
# Experimental: as §1
# M.avium 20096 = experiment: Antibacterial activity (MIC), atypical acid-fast bacteria; format: cell-based; details: Mycobacterium avium, 10^6/ml of colony forming bacteria
# Experimental: as §1
# M.intracellulare 20073 = experiment: as above; format: cell-based; details: Mycobacterium intracellulare, 10^6/ml of colony forming bacteria
# Experimental: as §1
# M.intracellulare 20067 = experiment: as above; format: cell-based; details: Mycobacterium intracellulare, 10^6/ml of colony forming bacteria
# Experimental: as §1
# M.avium 20092 = experiment: as above; format: cell-based; details: Mycobacterium avium, 10^6/ml of colony forming bacteria
# Experimental: as §1
# MRSA HPC 432 = experiment: Antibacterial activity (MIC), clinical isolates; format: cell-based, Methicillin-resistant Staphylococcus aureus; details: Staphylococcus aureus
# Experimental: as §1
# MRSA HPC 1336 = experiment: Antibacterial activity (MIC), clinical isolates; format: cell-based, Methicillin-resistant Staphylococcus aureus; details: Staphylococcus aureus
# Experimental: as §1
# S.aureus Smith HPC023 = experiment: Antibacterial activity (MIC), type strains; format: cell-based; details: Staphylococcus aureus
# Experimental: as §1
# [1] = test system: B.subtilis ATCC 6633 HPR022; experiment: Antibacterial activity (MIC), type strains; format: cell-based; details: Bacillus subtilis, ATCC6633; type strain B.subtilis ATCC 6633 HPR022; 10^6/ml of colony forming bacteria
# Experimental: as §1
# S.aureus MS353 HPC017 = experiment: Antibacterial activity (MIC), type strains; format: cell-based; details: Staphylococcus aureus, MS353HPC017
# Experimental: as §1
# [2] = clinical isolate E.faecalis HPC 1321, 10^6/ml of colony forming bacteria, read-out: MIC
# [3] = clinical isolate E.faecium HPC 1322, 10^6/ml of colony forming bacteria, read-out: MIC
# [4] = clinical isolate S.epidermidis HPC 1728, 10^6/ml of colony forming bacteria, read-out: MIC
# [5] = clinical isolate MRSA HPC 432, 10^6/ml of colony forming bacteria, read-out: MIC
# [6] = clinical isolate MRSA HPC 1336, 10^6/ml of colony forming bacteria, read-out: MIC
# [7] = type strain S.aureus Smith HPC023, 10^6/ml of colony forming bacteria, read-out: MIC
# [8] = type strain S.aureus MS353 HPC017, 10^6/ml of colony forming bacteria, read-out: MIC
smiles,measurement,setting,value
COC(=S)NC[C@H]1CN(c2ccc(N3CCS(=O)(=O)CC3)c(F)c2)C(=O)O1 [Example 3],MIC,E.faecalis HPC 1321; [2],0.39 µg/mL
same,MIC,E.faecium HPC 1322; [3],0.39 µg/mL
same,MIC,S.epidermidis HPC 1728; [4],0.39 µg/mL
same,MIC,M.avium 20096,3.13 µg/mL
same,MIC,M.intracellulare 20073,3.13 µg/mL
same,MIC,M.intracellulare 20067,3.13 µg/mL
same,MIC,M.avium 20092,3.13 µg/mL
same,MIC,MRSA HPC 432; [5],0.78 µg/mL
same,MIC,MRSA HPC 1336; [6],0.78 µg/mL
same,MIC,S.aureus Smith HPC023; [7],0.78 µg/mL
same,MIC,[1],0.39 µg/mL
same,MIC,S.aureus MS353 HPC017; [8],0.78 µg/mL
COC(=S)NC[C@H]1CN(c2ccc(N3CCCC3)c(F)c2)C(=O)O1 [Example 4],MIC,E.faecalis HPC 1321; [2],0.39 µg/mL
same,MIC,E.faecium HPC 1322; [3],0.39 µg/mL
same,MIC,S.epidermidis HPC 1728; [4],0.39 µg/mL
same,MIC,M.avium 20096,1.56 µg/mL
same,MIC,M.intracellulare 20073,0.78 µg/mL
same,MIC,M.intracellulare 20067,1.56 µg/mL
same,MIC,M.avium 20092,1.56 µg/mL
same,MIC,MRSA HPC 432; [5],0.39 µg/mL
same,MIC,MRSA HPC 1336; [6],0.39 µg/mL
same,MIC,S.aureus Smith HPC023; [7],0.39 µg/mL
same,MIC,[1],0.39 µg/mL
same,MIC,S.aureus MS353 HPC017; [8],0.39 µg/mL
"CC(=O)NC[C@H]1CN(c2ccc(N3CCOCC3)c(F)c2)C(=O)O1 [Reference compound, Linezolid, reference compound]",MIC,E.faecalis HPC 1321,1.56 µg/mL
same,MIC,E.faecium HPC 1322,1.56 µg/mL
same,MIC,S.epidermidis HPC 1728,3.13 µg/mL
same,MIC,M.avium 20096,50 µg/mL
same,MIC,M.intracellulare 20073,6.25 µg/mL
same,MIC,M.intracellulare 20067,12.5 µg/mL
same,MIC,M.avium 20092,25 µg/mL
same,MIC,MRSA HPC 432; MRSA,3.13 µg/mL
same,MIC,MRSA HPC 1336; MRSA,3.13 µg/mL
same,MIC,S.aureus Smith HPC023,3.13 µg/mL
same,MIC,[1],0.78 µg/mL
same,MIC,S.aureus MS353 HPC017,3.13 µg/mL
"COC(=S)NC[C@H]1CN(c2ccc(N3CCSCC3)c(F)c2)C(=O)O1 [Example 1, O-Methyl (S)-N-[3-[3-fluoro-4-(thiomorpholin-4-yl)phenyl]-2-oxooxazolidin-5-yl]methylthiocarbamate]",MIC,E.faecalis HPC 1321; [2],0.78 µg/mL
same,MIC,E.faecium HPC 1322; [3],0.78 µg/mL
same,MIC,S.epidermidis HPC 1728; [4],0.78 µg/mL
same,MIC,M.avium 20096,0.39 µg/mL
same,MIC,M.intracellulare 20073,0.39 µg/mL
same,MIC,M.intracellulare 20067,0.39 µg/mL
same,MIC,M.avium 20092,0.39 µg/mL
same,MIC,MRSA HPC 432; [5],0.78 µg/mL
same,MIC,MRSA HPC 1336; [6],0.78 µg/mL
same,MIC,S.aureus Smith HPC023; [7],1.56 µg/mL
same,MIC,[1],0.39 µg/mL
same,MIC,S.aureus MS353 HPC017; [8],0.78 µg/mL
COC(=S)NC[C@H]1CN(c2ccc(N3CC[S+]([O-])CC3)c(F)c2)C(=O)O1 [Example 2],MIC,E.faecalis HPC 1321; [2],0.39 µg/mL
same,MIC,E.faecium HPC 1322; [3],0.39 µg/mL
same,MIC,S.epidermidis HPC 1728; [4],0.78 µg/mL
same,MIC,M.avium 20096,3.13 µg/mL
same,MIC,M.intracellulare 20073,6.25 µg/mL
same,MIC,M.intracellulare 20067,6.25 µg/mL
same,MIC,M.avium 20092,3.13 µg/mL
same,MIC,MRSA HPC 432; [5],0.78 µg/mL
same,MIC,MRSA HPC 1336; [6],0.78 µg/mL
same,MIC,S.aureus Smith HPC023; [7],0.78 µg/mL
same,MIC,[1],0.39 µg/mL
same,MIC,S.aureus MS353 HPC017; [8],0.78 µg/mL
